Reference: patent US20240207410A1, “STABILIZED LIQUID COMPOSITIONS COMPRISING A LEVODOPA-TYROSINE CONJUGATE AND USES THEREOF” (NeuroDerm, Ltd., priority 2021, published 2024)
Where a SMILES comes first, the peptide text is derived from it. [ ]: non-standard residue; d: D form. Dopa = N[C@@H](Cc1ccc(O)c(O)c1)C(=O)O

Experiment: PK of formulations with varying concentrations of LD-Tyr and CD (Example 16)
Type: in vivo, domestic pig
Conditions: female, pig, plasma, sc, analyte LD-Tyr, 18-hour continuous SC infusion
Protocol: A series of PK and local site reaction studies was completed in domestic pigs using several concentrations LD-Tyr formulations comprising varying amounts of CD, as detailed in Table 37, and dosing regimens, as detailed in Table 38. The PK profile of LD-Tyr, as well as the LD resulting therefrom, was determined following 18-hour continuous SC infusion to female domestic pigs. Each formulation was administered at one infusion site per animal using a Crono-ND infusion pump (Canè SpA Medical Technology, Rivoli, Italy) connected to an infusion set (Accu-chek®, FlexLink, Roche).
Blood samples for the determination of LD-Tyr and LD plasma levels were collected from the pigs at the following timepoints: […]

[1] = 2640 mg/day, LD-Tyr/CD 44/1 % w/v, daily dose 2640/60 mg, n = 4
[2] = 2700 mg/day, LD-Tyr/CD 30/0.5 % w/v, daily dose 2700/45 mg, n = 5
[3] = 2700 mg/day, LD-Tyr/CD 30/[…] w/v, daily dose 2700/135 mg, n = 5

For `N[C@@H](Cc1ccc(O)c(O)c1)C(=O)N[C@@H](Cc1ccc(O)cc1)C(=O)O` [LD-Tyr, levodopa-tyrosine (LD-Tyr) conjugate of the formula (II)] (H-[Dopa]-Tyr-OH), the AUC(0-t) [1] was 8130 ng·h/mL, the Cmax [1] was 738 ng/mL and the Tmax [1] was 11.6 h. It also gave an AUC(0-t) [2] of 5450 ng·h/mL, a Cmax [2] of 453 ng/mL and a Tmax [2] of 8.8 h. The AUC(0-t) [3] was 13500 ng·h/mL, the Cmax [3] was 986 ng/mL and the Tmax [3] was 12.4 h.
